# Assay results taken from patent EP0151964A2, “New derivatives of alpha-amino-gamma-butyrolactone, method for the preparation thereof and pharmaceutical compositions containing them” (priority 1984, dated 1985).
# Experiments:
# [1] = Sedation of laboratory animals; format: in vivo; details: dose of about 50 mg/kg
# Description: The compound was administered to laboratory animals at a dose of about 50 mg/kg. The animals were sedated.
# A good yield of α-n-pentylcarbonyl-amino-γ-butyrolactone is ob= tained. The compound was administered to laboratory animals at a dose of about 50 mg/kg. The animals were sedated.
# [2] = Enhancement of the hypnotic effect of sodium pentobarbital (loss of righting reflex); format: in vivo; details: mouse
# Description: 40 mg, kgof sodium pentobarbital was injected intraperitoneal ly into mice and note was taken of animals losing the righting re= flex and for how long. Other mice received a preliminary treat= ment with PTT-01 at a dosage of 25 and 50 mg/kg, intraperitoneally and thereafter sodium pentobarbital was given.
# [3] = Antagonism towards electroshock (maximal electroshock, MES); format: in vivo; details: mouse; for Number of animals with Clonic convulsions / Number of animals with Tonic convulsions: treated animals in parentheses
# Description: Electroshock was produced in mice by applying ear electrodes. Stimulation parameters which could induce the maximal electroshok (MES) were adopted. This was obtained by applying rectangular input shocks for 0.6 seconds. Each input lasted […] and the input frequency was 25/sec. Phenobarbital sodium was used as control substance. […]
# [4] = Antagonism towards d-amphetamine: amphetamine-induced hypermobility; format: in vivo, mice; parameters: reference not given here
# Description: (§1) This particular feature of the compound could be deduced from the influence the compound exerted on: (a) d-amphetamine toxicity to mice kept in group, and (b) response time of une avoidance re= flex.
# Six groups of 4 mice each were treated with 5 mg/kg of d-am= phetamine sulfate by intraperitoneal administration. Six groups of 4 animals each received the same dose of d-amphetamine sulfate plus 25 mg/kg of PTT-01 intraperitoneally, 15 minutes after d-am= phetamine sulfate; six groups of 4 animals each received saline solution and were used as controls. Spontaneous mobility was ob= served in every animal according to the procedure described herein before. The number of times each animal crossed the light beam throughout the 10 minutes test was noted. As appears from Table 4, the treatment with PTT-01 aid not prevent d-amphetamine from stimulating spontaneous mobility.
# [5] = Spontaneous mobility (interruptions of a light beam in 10 minutes); format: in vivo; details: mice, controls fell to 71.4%
# Description: Several groups of 4 mice each were placed in an apparatus de signed to provide a measure of spontaneous mobility by counting the number of interruptions of a light beam for a period of 10 mi= nutes. After preliminary measurement of mobility, animals were injected with PTT-01 (25 and 50 mg/kg) intraperitoneally. Con= trols received saline solution. Then minutes thereafter the mea= surement of mobility was repeated. Five groups of mice were used as controls and 6 other groups were treated with varying doses of PTT-01.
# Arterial blood pressure = format: in vivo; details: single 50 mg/kg oral dose
# Description: (§2) The effect of a single 50 mg/kg oral dose of PTT-01 was deter mined on (a) diuresis in water-loaded rats, (b) choleresis, (c) ex cretion rate of intravenously injected bromosulphonphthalein in bi le, (d) arterial blood pressure.
# [6] = Sleep in cats conditioned to sleep for 8 hours; format: in vivo; details: 25 and 35 mg/kg
# [7] = Influence on the electromyogram, rabbit with cortical electrodes; format: in vivo; details: electrodes implanted in cerebral cortex, 50 mg/kg intraperitoneal, similar to 30 mg/kg intravenous phenobarbital sodium
# Description: The effect was similar to the effect caused by 30 mg/kg of intravenous phenobarbital sodium.
# [8] = Antagonism towards strychnine: protection from death caused by hypodermic injection; format: in vivo; details: mouse, single oral 50 mg/kg dose, 1.2 mg/kg strichnine sulfate, groups of six
# Description: (§3) This type of antagonism was evaluated in the mouse as follows: (1) protection from death caused by a hypodermic injection of strychnine; (2) evaluation of the LD50 of strychnine both in mice treated and untreated with PTT-01 and (3) influence on the time re quired to cause animals to die by slow intravenous perfusion of strychnine.
# Groups of six mice were used. Results are given in Ta= ble 5.
# [9] = Antagonism towards strychnine: time to death under slow intravenous infusion; format: in vivo; details: mice; for mean infusion time to cause death: infusion rate 0.25 ml/min
# Description: as §3
# (3) continuous intravenous infusion at constant rate (0.4 ml/min) of a strychnine sulfate solution (26.66 mg/l) was carried out by injection in a tail vein in mice until they died. One group of aninals received 50 mg/kg of PTT-01 as preliminary treatment 15 mi nutes before the beginning of the infusion. The mean infusion ti me to cause six controls to die was 134 ± 3.2 seconds (mean + SE). The mean infusion time required to obtain the same effect in animals pretreated with PTT-01 was 210 ± 6.1 seconds.
# In another experiment the infusion rate of strychnine was low ered to 0.25 ml/min. Under this conditions, the mean infusion ti me was 246 ± 3.1 seconds in the case of controls (six animals) and 338 ± 24.3 seoondss in treated animals.
# When the above mentioned infusion rate was maintained, while redu= cine the amount of PTT-01 to 25 mg/kg, the mean infusion time was 260 + 13.4 seconds in controls and 360 + 21.2 seconds in the treat ed animals.
# [10] = Avoidance reflex (response time in two-chamber conditioning cage); format: in vivo; details: four conditioned mice, controls 53.3±4.5 sec
# Excerpt: as §1
# A conditioning cage consisting of two chambers was used, with free access between the chambers. The floor of one compartment was electrified to make it possible to deliver a mild shook. Eice were conditioned by first giving a warning signal and then,af ter a short period of time the shock was applied. Mice learned to leave the electrified compartment after the warning bell soun= ded were then judged to be conditioned. The average period of ti me, in this experiment, for controls (4) within which they leave the compartment was 53.3±4.5 sec. Four conditioned mice were given PTT-01 intraperitoneally(25 mg/kg); time within which they left the compartment was 60.6 + 3.9 sec. Four conditioned mice treat= ed with 50 mg/kg of PTT-C1 left the compartment only after 77.5 ± 2.7 sec.
# [11] = Electrode recording in the unrestrained cat; format: in vivo; details: permanent electrodes, 50 or 100 mg/kg
# [12] = Excretion rate of intravenously injected bromosulphonphthalein in bile; format: in vivo; details: single 50 mg/kg oral dose
# Description: as §2
# [13] = Mortality from d-amphetamine in mice kept in group; format: in vivo; details: eight grouped mice, same amount (25 mg/kg) i.p. 10 minutes before 10 mg/kg d-amphetamine sulfate i.p.; all eight controls died
# Description: as §1
# However, PTT-01 reduced mortality from d-amphetamine. The same amount of PTT-01 was injected intraperitoneally. Then, 10 minutes later, an intraperitoneal injection of 10 mg/kg of d-amphe tamine sulfate was administered. Eight animals were used in this test and kept in a 25 x 20 x 14 om cage in an air-conditioned room (20°C, 6C,- humidity). […]
# [14] = Acute toxicity in animals; format: in vivo, rats ( Wistar-Morini Strain); details: for LD50: aqueous 1% suspension of tragacanth gum
# Description: PTT-01 was administered to adult rats ( Wistar-Morini Strain) of both sexes after fasting overnight. It was administered in an aqueous 1% suspension of tragacanth gum orally by gastric probe or intraperitoneally.
# [15] = Subacute toxicity in animals; format: in vivo; details: 8 rats, 50 mg/kg daily for 6 consecutive days
# Description: Accor= dingly, 8 rats were given 50 mg/kg daily for 6 consecutive days.
# Choleresis = format: in vivo; details: single 50 mg/kg oral dose
# Description: as §2
# [16] = Diuresis in water-loaded rats; format: in vivo
# Rotating bar test = format: in vivo; details: trained mice, group of five
# Description: Mice were trained to remain on a rotating bar for at least 3 minutes. A group of five of the trained mice were given an intra peritoneal injection of 25 mg/kg of PTT-01 in a 1% suspension of tragacanth gum. Another group of five mice were given an intra= peritoneal injection of 50 mg/kg of PTT-01 in a 1% suspension of tragacanth gum. All control animals stayed on the bar for 3 mi= nutes.
# [17] = 40 mg/kg i.p. 10 minutes before electroshock
# [18] = I 25 mg/kg + II 40 mg/kg intraperitoneally
# [19] = I 50 mg/kg + II 40 mg/kg intraperitoneally
# [20] = 25 mg/kg i.p. 10 minutes before electroshock
compound,measurement,setting,value
"CC(C)CC(=O)NC1CCOC1=O (stereo not drawn) [Example 2, α-isobutylcarbonyl-amino-γ-butyrolactone]",sedation,[1],sedated
"CCCCCC(=O)NC1CCOC1=O (stereo not drawn) [Example 3, α-n-pentylcarbonyl-amino-γ-butyrolactone]",sedation,[1],sedated
"CCCC(C)C1(CC)C(=O)NC(=O)NC1=O (stereo not shown) [II, sodium pentobarbital, reference compound]",Animals under hypnosis/ treated,[2]; II 40 mg/kg intraperitoneally alone,3/4
same,Duration of hypnosis in minutes (m± SE),"[2]; II 40 mg/kg intraperitoneally alone, zero assigned to animals not losing the righting reflex",3.25 ± 3.4 min
"CCC1(c2ccccc2)C(=O)NC(=O)NC1=O [Phenobarbital Na, Phenobarbital sodium, reference compound]",Number of animals Dead,[3]; [17],0/8
same,Number of animals with Clonic convulsions,[3]; [17],8 (8)
same,Number of animals with Tonic convulsions,[3]; [17],0 (8)
"C[C@H](N)Cc1ccccc1 [d-amphetamine, reference compound]",Mean number of crossings (± SE) in 10 minutes,"[4]; mouse, in vivo",657 ± 59
α-n-butylcarbonyl-amino-γ-butyrolactone [PTT-01],Animals under hypnosis/ treated,[2]; [18],4/4
same,Duration of hypnosis in minutes (m± SE),[2]; [18],52.5 ± 13 min
same,Animals under hypnosis/ treated,[2]; [19],4/4
same,Duration of hypnosis in minutes (m± SE),[2]; [19],75.2 ± 21.6 min
same,"mobility, % of the base-line values",[5]; 25 mg/kg intraperitoneally,31.9%
same,"mobility, % of the base-line values",[5]; 50 mg/kg intraperitoneally,23.1%
same,arterial blood pressure,Arterial blood pressure,No treatment caused any signi= ficant change
same,number of cases of REM sleep,[6],reduced the number of cases of REM sleep
same,total sleeping time,[6],did not modify the total sleeping time
same,electromyographic tracing,[7],tracing to become flat
same,protection against the lethal effect of strichnine sulfate,[8],protected all the animals
same,mean infusion time to cause death,"[9]; 25 mg/kg, controls 260 + 13.4",360 + 21.2 seconds
same,mean infusion time to cause death (mean + SE),"[9]; 50 mg/kg 15 minutes before infusion, strychnine sulfate 26.66 mg/l at 0.4 ml/min, controls 134 ± 3.2",210 ± 6.1 s
same,mean infusion time to cause death,"[9]; 50 mg/kg, controls 246 ± 3.1",338 ± 24.3 s
same,Number of animals Dead,[3]; [20],0/8
same,Number of animals with Clonic convulsions,[3]; [20],8 (8)
same,Number of animals with Tonic convulsions,[3]; [20],0 (8)
same,Mean number of crossings (± SE) in 10 minutes,"[4]; mice, d-amphetamine 5 mg/kg i.p. + 25 mg/kg i.p. given 15 minutes after d-amphetamine",836 ± 100
same,time within which they left the compartment,[10]; 25 mg/kg intraperitoneally,60.6 + 3.9 sec
same,time within which they left the compartment,[10]; 50 mg/kg,77.5 ± 2.7 s
same,sedation and electromyographic alterations,[11],sedation oc= curred without electromyographic alterations
same,excretion rate of intravenously injected bromosulphonphthalein in bile,[12],No treatment caused any signi= ficant change
same,animals died,[13],5 of the eight
same,effect in rats,[14]; 50 mg/kg by oral route,did not cause any particular effect
same,effect in rats,[14]; 100 mg/kg by oral route,mild sedative effect
same,duration of the sedative and hypnotic effects,"[14]; rats, acute toxicity doses, animal returned to normal",not long lasting
same,sedative effect,"[14]; rats, from the lowest intraperitoneal dose",the sedative effect was obtained
same,loss of the righting reflex,"[14]; rats, highest oral dose",not cause the loss of the righting reflex
same,sedative effect,"[14]; rats, highest oral dose",produced a sedative effect
same,loss of the righting reflex,"[14]; rats, intraperitoneal, 1 g/kg",the loss of the righting reflex occurred
same,LD50,"[14]; rats, intraperitoneally",more than 2 g/kg
same,LD50,"[14]; rats, orally by gastric probe",more than 2 g/kg
same,sedative effect or other abnormal symptoms,[15],No sedative effect or other abnormal symptoms were observed
same,choleresis,Choleresis,No treatment caused any signi= ficant change
same,diuresis in water-loaded rats,[16]; single 50 mg/kg oral dose,No treatment caused any signi= ficant change
same,rate of urine excretion,"[16]; water-loaded rats, daily oral dose of 50 mg/kg for five subsequent days",slowed
same,mice staying on the bar for 3 minutes,Rotating bar test; 25 mg/kg intraperitoneal,two out of the five
same,mice staying on the bar for 3 minutes,Rotating bar test; 50 mg/kg intraperitoneal,none
